Experimental data published in patent US9687493B2, “Use of NK-1 receptor antagonists for treating hypomagnesemia, neurogenic inflammation, and cardiac dysfunction associated with EGFR-blocking drugs” (THE GEORGE WASHINGTON UNIVERSITY, priority 2014, dated 2017).
Like-named read-outs stand apart in the source and are kept apart here.

Legend:
[1] = rat, in vivo
Experimental: Experiments on animals were conducted in accordance with the principles given in the US Department of Health and Human Services Guide for the Care and Use of Laboratory Animals and were approved by The George Washington University Institutional Animal Care and Use Committee. Male Sprague-Dawley rats (125-150 g) were purchased from Hilltop Lab Animals, Inc. (Scottdale, Pa.). After 1 week of quarantine, all age-matched rats were placed on an ad libitum Mg normal diet (25 mmole magnesium oxide/kg food regarded as 100% recommended daily allowance for rodents) obtained from Harlan-Teklad (Madison, Wis.) containing extracted casein as the diet base supplemented with essential vitamins and nutrients; or the same diet supplemented with erlotinib (OSI Pharmaceuticals, LLC, Northbrook, Ill. 60062, USA) to obtain a starting dose of 10 mg/kg/day, Emend® (as aprepitant, Merck & Co., INC. USA) to obtain a starting dose of 2 mg/kg/day, or both agents at these doses. Individually-housed rats were weighed and food consumption recorded daily to obtain actual drug dosage: time-range average erlotinib dose over 9 weeks was 7.07 mg/kg/day, and time-range average Emend dose over 9 weeks was 1.41 mg/kg/day. Rats had free access to distilled-deionized water, and were on a 12 h light/dark cycle for up to 9 weeks. […]

[2] = Plasma magnesium by atomic absorption flame emission spectroscopy; type: in vivo, Sprague-Dawley rats; details: erlotinib starting 10 mg/kg/day oral
Experimental: Individually-housed rats were weighed and food consumption recorded daily to obtain actual drug dosage: time-range average erlotinib dose over 9 weeks was 7.07 mg/kg/day, and time-range average Emend dose over 9 weeks was 1.41 mg/kg/day.
Magnesium levels in 1:50 or 1:100 diluted, acidified (nitric acid) plasma samples were determined by atomic absorption flame emission spectroscopy (wavelength=285.2 nm) using an AA-6200 Shimadzu spectrophotometer (Columbia, Md.) as described (13). Values obtained from standard curves were mg/dl, and reported as % of control.
Plasma was assessed for magnesium by flame emission atomic absorption spectroscopy (FIG. 2A). Data are the means±SEM of 5-7 animals per group. * p<0.05, **p<0.01 and # p<0.001 compared with the time-matched control group; +p<0.055 versus erlotinib alone. Plasma SP (FIG. 2B) was assessed by a colorimetric ELISA kit.

neutrophils = details: rat, in vivo
Experimental: (§1) At periodic intervals, blood was collected (˜0.5 ml) aseptically from the tail of anaesthetized rats (2% isoflurane, EZ Anesthesia Chamber with nose cone)(13, 14) in sterile microtainer plasma separator tubes containing heparin and the protease inhibitor, aprotinin (Sigma Chemicals, St. Louis Mo.) to yield final blood concentrations of 10.74 units/ml and 0.016 units/ml, respectively. For subsequent samplings, the scab was carefully removed, and the process was repeated. Plasma was obtained after centrifugation (12,000 rpm, 2 min, RT, IDEXX StatSpin VT, Iris International, Inc., Westwood, Mass.). Tail bleed samples were used for assessment of plasma Mg, and substance P levels. Sacrifice blood samples (˜8 ml collected in heparin plus aprotinin containing BD vacutainer SST tubes) were taken from anaesthetized, heparinized (0.3-0.4 ml 358 units/ml heparin in 0.9% NaCl, i.p.) rats from either the vena cava or by cardiac puncture, and were centrifuged (3,500 rpm, 10 min, RT). In addition to the above plasma parameters, sacrifice plasma was also assayed for 8-isoprostane levels, and the whole blood samples were processed for neutrophil isolation and assessment of superoxide anion production.
At sacrifice, whole blood (3 ml) samples were obtained; neutrophils were isolated by a step-gradient centrifugation method (13,−16). Superoxide anion production from neutrophils (0.5-0.75×10^6/ml) with (stimulated) or without (basal) PMA (phorbol myristate acetate, 100 ng/ml) was assayed in a phosphate buffer (pH 7.6) containing 5 mM glucose, 1 mM CaCl2, 1 mM MgCl2, and 75 μM cytochrome c±50 μg SOD. Superoxide generation was estimated as SOD-inhibitable reduction of cytochrome c using the extinction coefficient: E550=2.1×10^4M^−1cm^−1.
Hypomagnesemia alone in rodents can promote neutrophil free radical generating activity (Mak et al., Exp. & Clin. Cardiol. 2011, 16(4):121-124; Mak et al., Magnesium Res 2003, 16(2):91-97). In the present study, blood was sampled from rats treated with erlotinib (starting 10 mg/kg/day, oral) and/or Emend (aprepitant, starting 2 mg/kg/day, oral) at 9 weeks of exposure. Circulating neutrophil basal superoxide generating activity was determined as SOD-inhibitable reduction of cytochrome c (FIG. 3A). Plasma 8-isoprostane was assessed by a colorimetric ELISA kit (FIG. 3B). Values for erlotinib±Emend rats were compared to time-matched controls, and are means±SEM of 4-6 rats per group. ** p<0.01 versus control; ++p<0.01 versus erlotinib alone. […] Enhanced systemic oxidative stress, as represented by increased total plasma 8-isoprostane content (FIG. 3B), was prominent by 9 weeks (210% increase, p<0.01).

[3] = test system: nitro-tyrosine in cardiac tissue; experiment: Cardiac nitro-tyrosine immunohistochemical assessment; type: in vivo, Sprague-Dawley rats; details: 9 wk of Erlotinib treatment
Experimental: Cardiac tissue was rapidly excised, rinsed in saline, embedded in OCT compound, quickly frozen and kept at […] until used. Cryosections, 5 um thick, were stained by an indirect, immunohistochemical staining method (13) using rabbit anti-rat Nitrotyrosine antibody (5 ug/ml; Millipore, Billerica, Mass.) and the Vecta-Stain Elite ABC kit immunoperoxidase system (Vector Laboratories, Burlingame, Calif.). Samples were examined under an Olympus BX60 microscope, and multiple images were taken with a digital camera (Evolution Color MP; Media Cybernetics, Silver Spring, Md.). Briefly, fresh frozen sections were fixed in 10% formaldehyde, washed in PBS, incubated with 0.3% hydrogen peroxide in methanol for 30 min to block endogenous peroxidase, washed in PBS and incubated overnight at 4 C with rabbit anti nitrotyrosine antibody, which was applied on every slide except negative control. ABC kit reagents for horseradish peroxidase and 3-3′diaminebenzidine (DAB) were used to visualize the antigen-antibody reaction product as brown color. The sections were counterstained with hematoxylin, rinsed, dehydrated and cleared in series of ethanol and xylene and coverslipped.

cancer cells = details: through NOX-4 up-regulation; cited from earlier work
[4] = Plasma substance P (SP) by ELISA; type: in vivo, Sprague-Dawley rats; details: erlotinib
Experimental: Experiments on animals were conducted in accordance with the principles given in the US Department of Health and Human Services Guide for the Care and Use of Laboratory Animals and were approved by The George Washington University Institutional Animal Care and Use Committee. Male Sprague-Dawley rats (125-150 g) were purchased from Hilltop Lab Animals, Inc. (Scottdale, Pa.). After 1 week of quarantine, all age-matched rats were placed on an ad libitum Mg normal diet (25 mmole magnesium oxide/kg food regarded as 100% recommended daily allowance for rodents) obtained from Harlan-Teklad (Madison, Wis.) containing extracted casein as the diet base supplemented with essential vitamins and nutrients; or the same diet supplemented with erlotinib (OSI Pharmaceuticals, LLC, Northbrook, Ill. 60062, USA) to obtain a starting dose of 10 mg/kg/day, Emend® (as aprepitant, Merck & Co., INC. USA) to obtain a starting dose of 2 mg/kg/day, or both agents at these doses. Individually-housed rats were weighed and food consumption recorded daily to obtain actual drug dosage: time-range average erlotinib dose over 9 weeks was 7.07 mg/kg/day, and time-range average Emend dose over 9 weeks was 1.41 mg/kg/day. Rats had free access to distilled-deionized water, and were on a 12 h light/dark cycle for up to 9 weeks.
as §1

[5] = male, Sprague-Dawley, rat, in vivo, 9 weeks
Experimental: Male Sprague-Dawley rats (˜150 g) were purchased from Hilltop Lab Animals (Scottdale, Pa.). After one week of quarantine, the rats were divided into 4 groups: (1) Control group (N=5) receiving Mg normal diet (25 mmole Mg Oxide/kg food); (2) Erlotinib treated group (N=5, receiving erlotinib at a starting dose of 10 mg/kg/day in the diet); (3) Erlotinib+Emend group (N=7, receiving erlotinib plus Emend at a starting dose of 2 mg/kg/day in the diet); and (4) Emend alone group (N=5).

[6] = rat, in vivo; remark: listed apart in the source
Experimental: Anesthetized rats were subjected to echocardiography periodically during the treatment regimens using a GE VingMed System Five Echocardiogram System (12, 13, 17, and 18). Heart rate and rectal temperature (35.9-37.5° C.) were monitored constantly during the imaging. Animals were placed on a warming platform with paws taped down to limit any motion during imaging, and a sterile eye lubricant was applied to prevent eye drying during the procedure. Hair over the thorax was removed first with an electric clipper, and then with a depilatory cream (<2 min exposure). Animals were imaged (10 MHz probe) for about 20 minutes at an image depth of 3 cm. This imaging system allows for both cardiac structure and function evaluation in rats. Systolic function, measured as % fractional shortening (% FS) using M-mode imaging, and left ventricular ejection fraction (LVEF), calculated from M-mode measurements, were assessed. Key anatomical parameters (IVSd & s=inter-ventricular septum diameter in diastole and systole; and LVPWd & s=LV posterior wall thickness in diastole or systole) were measured to assess the presence of dilated or hypertrophic cardiomyopathy. Measurements of the aortic and pulmonary artery diameters were used to calculate stroke volumes. Aortic pressure max (AoPmax) was assessed; and spectral Doppler velocities were measured for the pulmonic and aortic outflows to calculate cardiac output (CO), and for the mitral valve inflows to assess ventricular diastolic function (mitral valve E and A wave velocities and the E/A ratio were obtained). After echocardiography, animals were placed in room air until awake, and observed until fully recovered.
Rats treated with erlotinib (starting 10 mg/kg/day, oral) and/or Emend (aprepitant, starting 2 mg/kg/day, oral) received echocardiography at the indicated intervals (FIGS. 5A-5C).
Table 3 legend: Interventricular septum dimension in diastole (IVSd) and systole (IVSs); and LV posterior wall thickness in diastole (LVPWd) and systole (LVPWs). Rats treated with erlotinib (starting 10 mg/kg/day, oral) and/or Emend (aprepitant, starting 2 mg/kg/day, oral) received echocardiography at the indicated intervals. Values (% change) for erlotinib±Emend rats were compared to time-matched controls, and are means±SEM of 5-7 rats per group.

[7] = rat, in vivo; remark: listed apart in the source
Experimental: as §1, with “In addition to the above plasma parameters, sacrifice plasma was also assayed for 8-isoprostane levels, and the whole blood samples were processed for neutrophil isolation and assessment of superoxide anion production.” left out
Hypomagnesemia alone in rodents can promote neutrophil free radical generating activity (Mak et al., Exp. & Clin. Cardiol. 2011, 16(4):121-124; Mak et al., Magnesium Res 2003, 16(2):91-97). […] Circulating neutrophil basal superoxide generating activity was determined as SOD-inhibitable reduction of cytochrome c (FIG. 3A). Plasma 8-isoprostane was assessed by a colorimetric ELISA kit (FIG. 3B). […]

change in circulating Mg level vs time-matched control ([2]; 1.5 week): −2%
change in circulating Mg level vs time-matched control ([2]; 9 weeks, p<0.001): −26%
change in circulating Mg level vs time-matched control ([2]; wk 3): −9%
change in circulating Mg level vs time-matched control ([2]; wk 5): −13%
change in circulating Mg level vs time-matched control ([2]; wk 7): −16%
neutrophil basal superoxide generating activity, higher than control (neutrophils): 3 fold
increase in circulating SP vs time-matched control ([4]; week 3, p<0.05): 27.3%
increase in circulating SP vs time-matched control ([4]; week 5, NS): 12.3%
increase in circulating SP vs time-matched control ([4]; week 9, p<0.01): 25.4%
number of animals that developed facial lesion [5]: 5
decline in IVSd ([6]; male, Sprague-Dawley): 12.8-16.8%
decline in LVPWs ([6]; male, Sprague-Dawley): 9.3-21.9%
fall in LVPWd ([6]; male, Sprague-Dawley): 15.6-20.9%
lower IVSs ([6]; male, Sprague-Dawley): 11.4-17.5%
LV % fractional shortening (LV % FS) lower than time-matched control ([6]; male, Sprague-Dawley, 7 weeks): 17.2%
LV ejection fraction (LVEF) lower than time-matched control ([6]; male, Sprague-Dawley, 7 weeks): 10.4%
aortic pressure maximum lower than control ([6]; male, Sprague-Dawley, 7 weeks): 17.1%
cardiac output reduced vs control ([6]; male, Sprague-Dawley, 7 weeks): 18.8%
LV % fractional shortening (LV % FS) lower than time-matched control ([6]; male, Sprague-Dawley, 9 weeks): 17.7%
LV ejection fraction (LVEF) lower than time-matched control ([6]; male, Sprague-Dawley, 9 weeks): 11%
aortic pressure maximum lower than control ([6]; male, Sprague-Dawley, 9 weeks): 27.5%
cardiac output reduced vs control ([6]; male, Sprague-Dawley, 9 weeks): 20.3%
mitral valve E/A ratio reduction ([6]; male, Sprague-Dawley, 9 weeks): 17.5%
changes in cardiac contractile function [6]: No significant changes
mitral valve E/A ratio [6]: not significantly affected
increase of total plasma 8-isoprostane content [7]: 210%
SMILES: C#Cc1cccc(Nc2ncnc3cc(OCCOC)c(OCCOC)cc23)c1 [Erlotinib, erlotinib]
food consumption compared to controls [1]: Neither ERL nor Emend affected food consumption
cardiac nitro-tyrosine (NT) presence, immunohistochemical staining [3]: substantial perivascular and diffused NT presence
cellular oxidative stress (cancer cells): can provoke cellular oxidative stress
